For series [1] the following is noted: Liquid; for Critical pressure: Direct measurement; for Critical temperature: Visual observation in an unstirred cell.
The nature of series [2]: xn = mol fraction of the nth substance listed. The settings on record: Liquid.

The structures appear in SMILES notation. ± gives the expanded uncertainty stated by the source.

Among the data in the NIST ThermoML archive (doi:10.1021/je0499420) are Critical density, Critical pressure and Critical temperature values, retold here.

With `FC(F)C(F)(F)F` [pentafluoroethane], in series [1], the Critical density is listed as 560 ± 13 kg/m3, the Critical pressure stood at 3617 ± 12 kPa and the Critical temperature turned out to be 339.2 ± 0.16 K.

`COC(F)(F)C(F)(F)F` [methyl pentafluoroethyl ether] + FC(C(F)(F)F)C(F)(F)F: the Critical density was found to be 584 ± 14 kg/m3 in series [2] (x1 = 0.1823); 558 ± 13 kg/m3 in series [2] (x1 = 0.306); 545 ± 13 kg/m3 in series [2] (x1 = 0.4769); 531 ± 12 kg/m3 in series [2] (x1 = 0.6944); 519 ± 12 kg/m3 in series [2] (x1 = 0.8132); 491 ± 11 kg/m3 in series [2] (x1 = 1).

As for `FCC(F)(F)F` [1,1,1,2-tetrafluoroethane] + COC(F)(F)C(F)(F)F, the Critical density in series [2] (x2 = 0) was 508 ± 12 kg/m3.

Consider `COC(F)(F)C(F)(F)F` [methyl pentafluoroethyl ether] + FC(F)C(F)(F)F, for which the Critical density in series [2] (x1 = 0.1408) is 551 ± 13 kg/m3; in series [2] (x1 = 0.2438) it was 543 ± 13 kg/m3; in series [2] (x1 = 0.4346), 540 ± 13 kg/m3; in series [2] (x1 = 0.5897) it was 536 ± 12 kg/m3; in series [2] (x1 = 0.7753), 521 ± 12 kg/m3; in series [2] (x1 = 1), 491 ± 11 kg/m3.

For `FC(C(F)(F)F)C(F)(F)F` [1,1,1,2,3,3,3-heptafluoropropane] + COC(F)(F)C(F)(F)F, in series [2] (x2 = 0), the Critical density turned out to be 598 ± 14 kg/m3.

For the compound `FC(F)C(F)(F)F` [pentafluoroethane] + COC(F)(F)C(F)(F)F, the Critical density in series [2] (x2 = 0) is listed as 560 ± 13 kg/m3.

Take `FC(C(F)(F)F)C(F)(F)F` [1,1,1,2,3,3,3-heptafluoropropane]: in series [1], the Critical density is 598 ± 14 kg/m3, the Critical pressure is on record as 2930 ± 12 kPa and the Critical temperature was 375 ± 0.16 K.

As to `FC(F)C(F)C(F)(F)F` (stereo not drawn) [1,1,1,2,3,3-hexafluoropropane] + COC(F)(F)C(F)(F)F, the Critical density in series [2] (x2 = 0) turned out to be 562 ± 13 kg/m3; in series [2] (x2 = 0.1546), 550 ± 13 kg/m3; in series [2] (x2 = 0.3124) it was 535 ± 12 kg/m3; in series [2] (x2 = 0.4485), 534 ± 12 kg/m3; in series [2] (x2 = 0.6388), 520 ± 12 kg/m3; in series [2] (x2 = 0.7888) it was 506 ± 12 kg/m3.

On to `FC(F)C(F)C(F)(F)F` (stereo not drawn) [1,1,1,2,3,3-hexafluoropropane], for which, in series [1], the Critical density is 562 ± 13 kg/m3, the Critical pressure came out at 3416 ± 12 kPa and the Critical temperature is 412.41 ± 0.16 K.

For `COC(F)(F)C(F)(F)F` [methyl pentafluoroethyl ether], in series [1], the Critical density was found to be 491 ± 11 kg/m3, the Critical pressure amounted to 2885 ± 12 kPa and the Critical temperature is recorded as 406.82 ± 0.16 K.

Turning to `COC(F)(F)C(F)(F)F` [methyl pentafluoroethyl ether] + FC(F)C(F)C(F)(F)F, the Critical density in series [2] (x1 = 1) came to 491 ± 11 kg/m3.

Consider `COC(F)(F)C(F)(F)F` [methyl pentafluoroethyl ether] + FCC(F)(F)F, for which the Critical density amounted to 508 ± 12 kg/m3 in series [2] (x1 = 0.1167); 512 ± 12 kg/m3 in series [2] (x1 = 0.2446); 509 ± 12 kg/m3 in series [2] (x1 = 0.4299); 506 ± 12 kg/m3 in series [2] (x1 = 0.5886); 503 ± 12 kg/m3 in series [2] (x1 = 0.7674); 491 ± 11 kg/m3 in series [2] (x1 = 1).

With `FCC(F)(F)F` [1,1,1,2-tetrafluoroethane], in series [1], the Critical density was found to be 508 ± 12 kg/m3, the Critical pressure turned out to be 4053 ± 12 kPa and the Critical temperature turned out to be 374.13 ± 0.16 K.
